Consider one compound from article PMC12980303, “Development of a novel risk score reflecting the relative harm potential of synthetic cannabinoids based on prevalence estimates, well‐documented intoxication cases and basic pharmacological data” (Addiction (Abingdon, England), 2025).

For data set [1], the target named is hCB1 receptor (Homo sapiens, UniProt P21554). The experiment in a line: functional [35S]GTPγS hCB1 activation assay. It counts as biochemical. Here is the method:
Receptor assays were performed on three different days and each concentration was tested in duplicate.

Data set [2] can be described thus: risk score from prevalence in routine forensic samples and intoxication cases (G1, PSS, TSS). More on the design: species or system human. From the text: Therefore, higher values indicate substances with a higher risk. […] To take into account the severity of symptoms and the contribution of the specific NPS, two further summands were introduced. The first is based on the PSS, the second on the TSS. Again, higher values were associated with more severe symptoms and a stronger role of the NPS in causing the symptoms.
The risk score is composed of three components (parts G1, G2 and G3) and was designed as follows: (1) Gx=G1x+G2x+G3x,
Equation 2 takes into consideration several components: the number of intoxications with SCRA x in quarter k over the total number of intoxications of all investigated SCRAs in the same quarter; the number of serum/blood samples positive for SCRA x over the total number of serum/blood samples positive for all SCRAs plus the number of urine samples positive for SCRA x over the total number of urine samples positive for all SCRAs (this is divided by two to account for the two different sample types); and the number of quarters in which the SCRA x was prevalent. (2) G1x=∑k=1gak/bk/ck/dk+ek/fk/2/h+i
Consequently, equation 2 was mathematically rearranged. To further simplify the equation and reduce the formula signs, in equation 3 the following simplifications were taken: a/b=ai , c/d=as and e/f=au .
The sum of these quotients was divided by the number of all prevalent quarters (q p ). Prevalent quarters were defined as quarters in which on average the substance was detected in more than 5% of the positive serum and urine samples. If a poisoning occurred in a quarter in which the substance was not prevalent, the number of these quarters was added (q i ). This part of the score has similarities with an OR [42]. If the proportion of routine samples in a given quarter in which an intoxication with the respective substance occurred was zero (a s + a u = 0), a value of 0.01 was used for that quarter in the calculation of the quotient to avoid division by zero.
For part G2, the severity of the intoxication caused by the respective SCRA x was assessed on the basis of reported symptoms and follow‐up information using the PSS [20]. The PSS classifies the intoxication severity into five levels: (0) no, (1) mild, (2) moderate, (3) severe, and (4) fatal intoxication. […] For this purpose, the mean value of the PSS of all intoxications with the respective SCRA x was calculated ( G2x) .
For part G3, the involvement of the SCRA in the respective intoxications was assessed. This was evaluated on the basis of the TSS [21]. Elliott et al. developed the TSS to assess and classify the contribution of NPS in fatalities. In the present study, the TSS was determined to weigh the involvement of the investigated SCRA in the intoxication and the contribution of the SCRA to the observed symptoms. To determine the TSS value, factors such as the determined concentration of the SCRA, the presence of other recreational drugs or medicinal drugs, the general health of the patient and the consumption circumstances need to be considered. […] In cases with more than one drug detected, a TSS of 3 was only assigned where other compounds were present at concentrations below the range in which relevant effects are to be expected.
For the risk score, the mean value of the TSS of all intoxications with substance x was calculated ( G3x) . Analogous to the value of G2x , the value of G3x can theoretically be between 1 and 3. With a value of ‘1’, substance x was not mainly responsible for the symptoms in all of the intoxications (low level of significance), and with a value of ‘3’, it was the main cause in every poisoning in which it was detected.

hCB1 receptor, sequence (P21554 whole entry): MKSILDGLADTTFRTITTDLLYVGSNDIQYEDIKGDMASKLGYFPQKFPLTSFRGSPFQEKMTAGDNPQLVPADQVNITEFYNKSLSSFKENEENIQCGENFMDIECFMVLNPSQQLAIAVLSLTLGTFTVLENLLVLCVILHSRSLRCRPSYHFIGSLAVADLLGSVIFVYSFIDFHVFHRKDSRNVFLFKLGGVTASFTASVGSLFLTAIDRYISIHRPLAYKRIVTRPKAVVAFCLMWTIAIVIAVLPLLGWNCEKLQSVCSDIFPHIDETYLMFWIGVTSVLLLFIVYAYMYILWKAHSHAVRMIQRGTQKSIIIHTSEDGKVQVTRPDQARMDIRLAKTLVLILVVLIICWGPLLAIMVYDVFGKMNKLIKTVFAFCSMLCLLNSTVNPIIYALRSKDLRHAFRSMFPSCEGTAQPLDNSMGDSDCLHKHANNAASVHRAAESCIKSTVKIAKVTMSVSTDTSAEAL

Regarding `CC(C)C(NC(=O)c1nn(CC2CCCCC2)c2ccccc12)C(N)=O` (stereo not drawn), the concentration for a half-maximal effect (EC50) in data set [1] is 5.09 nM. Besides, the Emax in data set [1] (read-out: [35S]‐GTPγS assay Emax [%] (95% CI)) stood at 124%. Also, the “G total (risk score)” value in data set [2] (G1+G2+G3, higher value = greater toxicological risk) is recorded as 7.2. This compound also showed a G2 in data set [2] (mean Poison Severity Score (PSS) of all intoxications with the SCRA) of 2.1. In data set [2] (mean Toxicological Significance Score (TSS) of all intoxications with the SCRA), the G3 was found to be 2.3. In data set [2] (proportion in intoxication cases relative to prevalence in routine serum/blood and urine samples per quarter, 2013–2021, >1 over‐represented in intoxications), the G1 worked out at 2.8.
